# Test results as given in patent US12673081B2, “Traditional CHINESE medicine compound composition with immune bidirectional regulation effect and preparation method and applications thereof” (Chenland Nutritionals Inc., priority 2020, dated 2026).
# Legend:
# [1] = Cold model of immunocompromised rats induced by cyclophosphamide: body weight; assay type: in vivo, rat; conditions: SD rats, Sample-1 150, Sample-2 75, Sample-3/-4/-5 150, Sample-6 30 mg/kg
# Source text: (§1) […] were divided into 20 cages, 5 SD rats in each cage, 2 cages in each group, 1 cage for male and female respectively. After 7 days of adaptive growth, 70 rats were used for drug administration evaluation and the construction of rat upper respiratory tract infection model, and the remaining 10 rats were used for normal control. During the whole experiment, the animals were looked after and treated in strict accordance with the animal ethics law.
# (§2) After the adaptive growth, the drug was given by gavage once a day for each SD rat. The Placebo group and the normal control group were given the same volume of drug solution (i.e. normal saline) every day for 4 weeks, i.e. 28 days.
# (§3) 1) On the 14th day after gavage administration, rats in the model group were intraperitoneally injected with cyclophosphamide for 3 consecutive days and strengthened once on the 20th day to prepare the immunosuppressive model.
# (§4) 2) On the 21st day, after the rats were placed in a low temperature environment overnight (4° C.), the cold symptoms such as burnout, decreased food intake and increased nasal secretion were found, which was regarded as successful modeling.
# (§5) 3) During the period of normal administration, the administration was ended on the 28th day, and the rats were killed.
# (§6) The body weight of rats was measured once a week. During the administration, the general conditions, behavioral characteristics and death status of rats in each group, such as appetite, hair color and body posture, were observed. Nasal secretion and body temperature were observed ever day.
# [2] = tested on: cold model of immunocompromised rats; experiment: Cold model of immunocompromised rats induced by cyclophosphamide: body temperature; assay type: in vivo, rat; conditions: SD rats cold model, Sample-1 150, Sample-2 75, Sample-3/-4/-5 150, Sample-6 30 mg/kg
# Source text: as §1, §2, §3, §4, §5, §6
# [3] = tested on: IL-1β, IFN-γ, IgG, IgM, sIgA; experiment: Cold model rats: cytokines in serum and saliva by ELISA; assay type: in vivo, rat; conditions: SD rats cold model, gavage 28 days, Sample-1 150, Sample-2 75, Sample-3/-4/-5 150, Sample-6 30 mg/kg
# Description: 1) On the second day after the last administration, the rats were anesthetized by intraperitoneal injection of 10% chloral hydrate with the anesthetic dosage of 0.35 ml/100 g;
# 2) The abdominal cavity was opened, and a 5 ml sterile syringe was inserted into the abdominal vein of the rats, and the venous blood was drawn:
# (§7) 3) The drawn venous blood was put into a heparin tube, mixed well, and left in a chromatography freezer at 4° C. overnight.
# (§8) 4) After centrifugation at 14000 rpm at 4° C. for 15 minutes, the supernatant was taken and stored at −80° C. for use.
# 2) SD rats were fixed in the supine and low head position, sterile cotton swabs were inserted into the upper respiratory tract of rats, dipped in rat saliva, and immediately placed in precooled normal saline and stored at −80° C. for use.
# The final serum was used for IL-1β, IL-6, IL-12, IFN-γ, IgG, IgM, and saliva was used for the determination of sIgA. The determination steps were as follows:
# (§9) 1) taking out the ELISA kit from the refrigerator and balancing it at room temperature for 20 min;
# (§10) 3) after sealing the film with a film sealing plate, placing it in a 37° C. incubator for incubation for 30 min;
# 4) discarding the liquid in the wells, gently drying it, and adding 50 μL biotin labeled antibody working solution to each well, and incubating in a 37° C. incubator for 30 min;
# (§11) 5) carefully removing the sealing film, pouring out the liquid in the wells, gently spin drying it, adding washing liquid into each well, standing at room temperature for 30 seconds and then pouring it out, repeating this operation for 5 times and gently patting it dry;
# (§12) 6) adding 50 μL horseradish peroxidase labeled avidin working solution to each well, and incubating in a 37° C. incubator for 30 min;
# (§13) 7) pouring out the liquid in the wells, gently spin drying it, adding washing liquid into each well, standing at room temperature for 30 seconds and then pouring it out, repeating this operation for 5 times and gently patting it dry; and
# 8) adding […] color developing solution to each well in turn, and developing color in a 37° C. incubator without light for 15 min;
# 9) adding 50 μL termination solution to each well to terminate the reaction, then zeroing the blank wells and measure the absorbance (OD value) of each well at 450 nm wavelength, where the determination shall be carried out within 15 min after the termination solution is added.
# [4] = tested on: guinea pig model with allergic rhinitis; experiment: Allergic rhinitis experiment: symptom observation (nose scratching, sneezing, symptom score) after OVA nasal instillation; assay type: in vivo; conditions: guinea pigs, gavage 28 days, D1 41, D2 45, D3 116, D4 116, D5 58, D6 116, D7 233, D8 16 mg/kg
# Source text: (§14) On the day of modeling, drugs were given by gavage. Each guinea pig was given once a day, and the Placebo group was given equal volume of drug solution every day for 4 weeks, i.e. 28 days.
# [5] = tested on: guinea pig model with allergic rhinitis; experiment: Allergic rhinitis experiment: number and time points of deaths in each group; assay type: in vivo; conditions: surviving guinea pigs of 10 in group; D1 41, D2 45, D3 116, D4 116, D5 58, D6 116, D7 233, D8 16 mg/kg
# Source text: 100 guinea pigs were divided into 20 cages with 5 guinea pigs in each cage. After 7 days of adaptive growth without abnormalities, 90 guinea pigs were used for the construction and induction of allergic rhinitis model, and the remaining 10 guinea pigs were used for normal control. During the whole experiment, the animals were looked after and treated in strict accordance with the animal ethics law.
# as §14
# [6] = tested on: eosinophils in nasal lavage solution; experiment: Counting of eosinophils in nasal lavage solution; assay type: in vivo, guinea pig; conditions: guinea pigs
# Description: (§15) 1) After scoring on the second day after the last administration, guinea pigs were anesthetized by intraperitoneal injection of 10% chloral hydrate with the anesthetic dosage of 0.35 ml/100 g;
# 2) The guinea pig was fixed in a supine and low head position, the normal saline was slowly dropped into one nasal cavity at the rate of 1 ml/min, and the contralateral nasal cavity was continuously pumped with low negative pressure;
# 3) A small amount of the recovered lavage solution was taken immediately and put into a leukocyte counting plate to count the total number of leukocytes;
# 4) The remaining lavage solution was added with EDTA ([…]) and centrifuged at 14000 rpm at 4° C. for 15 minutes. And the supernatant was stored at −80° C. for use.
# [7] = tested on: histamine, IgE, IL-4, IFN-γ, thromboxane B2 and leukotriene; experiment: Final plasma cytokines of guinea pigs by ELISA; assay type: in vivo, guinea pig
# Description: as §15
# 2) The abdominal cavity was opened, and a 5 ml sterile syringe was inserted into the abdominal vein of the guinea pig, and the venous blood was drawn;
# as §7, §8
# 1.6 The expression levels of cytokines in guinea pig serum and nasal lavage solution were detected by ELISA. The final serum and nasal lavage solution were taken for the determination of histamine, IgE, IL-4, IFN-γ, thromboxane B2 and leukotriene.
# as §9, §10
# 4) discarding the liquid in the wells, gently spin drying it, and adding 50 μL biotin labeled antibody working solution to each well, and incubating in a 37° C. incubator for 30 min;
# as §11, §12, §13
# 8) adding 100 μL color developing solution to each well in turn, and developing color in a 37° C. incubator without light for […];
# 9) adding […] termination solution to each well to terminate the reaction, then zeroing the blank wells and measure the absorbance (OD value) of each well at 450 nm wavelength, where the determination shall be carried out within 15 min after the termination solution is added.
# nasal mucosa = experiment: HE staining of final nasal mucosa of guinea pigs; assay type: in vivo, guinea pig; conditions: gavage 28 days, D1 41, D2 45, D3 116, D4 116, D5 58, D6 116, D7 233, D8 16 mg/kg
# Description: as §15
# 2) After peeling off the nasal skin, the maxilla together with the nasal cavity were removed, and the bilateral nasal cavities were completely separated from the middle incisors;
# 3) The nasal mucosa was carefully removed and fixed with 4% paraformaldehyde for HE staining;
# 4) All the HE stained pathological sections were observed under the light microscope.
# The mucosal tissues fixed in 4% glutaraldehyde solution were taken out and made into 5 μm thick paraffin sections for HE staining.
# 1) 60%, 70%, 80% and 90% gradient ethanol of the fixed sample were used to dehydrate for 8 h respectively;
# 2) 100% ethanol I and II were used to dehydrated for 1 h respectively;
# 3) The xylene I and II were used to make the specimens transparent for 15 min respectively;
# 4) The specimens were soaked in liquid paraffin and placed in a 65° C. oven for 2 h;
# 5) The soaked paraffin specimens were taken out and embedded in paraffin;
# 6) The paraffin was cut into 5 μm thick sections and subjected to HE staining.
# 1) Xylene I and II for 15 min respectively;
# 2) Gradient ethanol hydration to distilled water;
# 3) Hematoxylin staining for 5 min;
# 4) Differentiation with 1% hydrochloric acid and ethanol for 1 min; […]
# [8] = final plasma, gavage 28 days, D1 41, D2 45, D3 116, D4 116, D5 58, D6 116, D7 233, D8 16 mg/kg
smiles,measurement,setting,value
"O=C1O[C@H]([C@@H](O)CO)C(O)=C1O [Sample-6, VC]",weight week 1,[1]; week 1,200.37 ± 8.23 g
same,weight week 2,[1]; week 2,217.99 ± 12.26 g
same,weight week 3,[1]; week 3,193.64 ± 12.51 g
same,weight week 4,[1]; week 4,173.58 ± 7.48 g
same,weight week 0,"[1]; gavage once a day 28 days, week 0",184.61 ± 7.84 g
same,temperature Day 15,[2]; Day 15,36.84 ± 0.22
same,temperature Day 16,[2]; Day 16,36.78 ± 0.48
same,temperature Day 17,[2]; Day 17,36.9 ± 0.33
same,temperature Day 18,[2]; Day 18,36.6 ± 0.19
same,temperature Day 19,[2]; Day 19,36.63 ± 0.28
same,temperature Day 20,[2]; Day 20,36.69 ± 0.22
same,temperature Day 21,[2]; Day 21,36.41 ± 0.3
same,temperature Day 22,[2]; Day 22,37.89 ± 0.53
same,temperature Day 23,[2]; Day 23,38.23 ± 0.64
same,temperature Day 24,[2]; Day 24,38.11 ± 0.56
same,temperature Day 25,[2]; Day 25,37.87 ± 0.4
same,temperature Day 26,[2]; Day 26,37.41 ± 0.4
same,temperature Day 27,[2]; Day 27,37.32 ± 0.28
same,temperature Day 28,[2]; Day 28,37.62 ± 0.31
same,serum IFN-γ content,[3]; final serum,170.49 ± 21.44 pg/mL
same,serum IL-β content,[3]; final serum,100.12 ± 27.51 pg/mL
same,serum IgG content,[3]; final serum,606.77 ± 259.06 µg/mL
same,serum IgM content,[3]; final serum,177.1 ± 35.59 µg/mL
same,saliva sIgA content,[3]; upper respiratory tract saliva,13.9 ± 4.08 µg/mL
"CCOC(=O)N1CCC(=C2c3ccc(Cl)cc3CCc3cccnc32)CC1 [D8, Loratadine]",nose scratching times decreased compared with the model group,[4],57.0%
same,sneeze times decreased compared with the model group,[4],54.4%
same,Final scoring of symptom observation,[4]; score 1-3 per Table 2,1.50 ± 0.50
same,Final number,[5],8
same,Number after enhanced sensitization,[5],8
same,Number after nasal instillation,[5],8
same,number of eosinophils in nasal lavage solution decreased compared with the model group,"[6]; D1 41, D2 45, D3 116, D4 116, D5 58, D6 116, D7 233, D8 16 mg/kg",52.2%
same,number of eosinophils in nasal lavage solution compared with the model group,"[6]; D8 16 mg/kg, p<0.01",decreased significantly
same,Number of eosinophils,"[6]; nasal lavage solution, gavage 28 days, D1 41, D2 45, D3 116, D4 116, D5 58, D6 116, D7 233, D8 16 mg/kg",3.50 ± 1.12 PCs./ml
same,Histamine,[7]; [8],23.78 ± 3.86 ng/mL
same,IFN-γ,[7]; [8],113.74 ± 12.59 pg/mL
same,IL-4,[7]; [8],138.64 ± 39.91 pg/mL
same,IgE,[7]; [8],41.86 ± 7.34 ng/mL
same,LTB4,[7]; [8],32.00 ± 6.71 ng/mL
same,TXB2,[7]; [8],24.86 ± 4.5 ng/mL
same,contents of TXB2 and TLB4 in nasal lavage solution versus model control group,[7]; p<0.05,significant difference compared with the model control group
same,serum IgE content versus model group,[7]; significantly different from model group (p<0.05),reduce the serum IgE content
same,pathological analysis of HE stained nasal mucosa,nasal mucosa,the inflammatory reaction in nasal mucosa of guinea pigs was significantly reduced
